The values that follow are results of earlier work, collected in patent publication US12006297B2, “Antibacterial activity of functionalized dihydropyrimidines” (WiSys Technology Foundation, Inc., priority 2021, dated 2024).

Data set [1] relates to MRSA. As to conditions: versus oxacillin and erythromycin.
Data set [2] has as its target DHFR (Staphylococcus aureus, UniProt P0A017).
In data set [3] the test system is skin infections.

Sequence of DHFR (P0A017 whole entry): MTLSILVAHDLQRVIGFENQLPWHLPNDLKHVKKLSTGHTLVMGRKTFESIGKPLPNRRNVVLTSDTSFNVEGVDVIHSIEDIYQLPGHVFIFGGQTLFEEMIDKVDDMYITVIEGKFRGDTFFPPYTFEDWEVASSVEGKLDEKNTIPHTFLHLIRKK

As for `CCOC(=O)C1=C(CC)NC(N)=NC1c1cc(Cl)cc(Cl)c1O` (stereo not shown) [HAK-22, emmacin], in data set [1], the “MRSA growth inhibition compared with approved antibiotics” value is recorded as “inhibiting the growth of MRSA at concentrations lower than approved antibiotics”. For the same compound, in data set [2], the “mechanism of DHFR inhibition” value was “unique allosteric uncompetitive mechanism”.
On to `COc1cc(Cc2cnc(N)nc2N)c2c(c1OC)OC(C1CC1)C=C2` (racemic) [Iclaprim], for which the side effects entry in data set [3] (clinical trials) is recorded as “mild to moderate side effects”. Also, the efficacy versus vancomycin result in data set [3] (control of skin infections, phase 2 and 3 clinical trials) is reported as “non-inferiority”.
